The target in data set [1] is DNA gyrase subunit B (Mycobacterium smegmatis, UniProt P0C559). The data set can be described thus: Inhibition of Mycobacterium smegmatis GyrB ATPase activity expressed in Escherichia coli BL21 (DE3) pLysS cells after 100 mins by inorganic phosphate release detection based malachite green reagent assay. Also on record: species or system Mycolicibacterium smegmatis.
In data set [2] the target is DNA gyrase subunit B (Staphylococcus aureus) (UniProt P0A0K8). The data set can be described thus: Inhibition of Staphylococcus aureus GyrB at 100 uM.
Sequence of DNA gyrase subunit B (Staphylococcus aureus) (P0A0K8 2-644 limits assumed): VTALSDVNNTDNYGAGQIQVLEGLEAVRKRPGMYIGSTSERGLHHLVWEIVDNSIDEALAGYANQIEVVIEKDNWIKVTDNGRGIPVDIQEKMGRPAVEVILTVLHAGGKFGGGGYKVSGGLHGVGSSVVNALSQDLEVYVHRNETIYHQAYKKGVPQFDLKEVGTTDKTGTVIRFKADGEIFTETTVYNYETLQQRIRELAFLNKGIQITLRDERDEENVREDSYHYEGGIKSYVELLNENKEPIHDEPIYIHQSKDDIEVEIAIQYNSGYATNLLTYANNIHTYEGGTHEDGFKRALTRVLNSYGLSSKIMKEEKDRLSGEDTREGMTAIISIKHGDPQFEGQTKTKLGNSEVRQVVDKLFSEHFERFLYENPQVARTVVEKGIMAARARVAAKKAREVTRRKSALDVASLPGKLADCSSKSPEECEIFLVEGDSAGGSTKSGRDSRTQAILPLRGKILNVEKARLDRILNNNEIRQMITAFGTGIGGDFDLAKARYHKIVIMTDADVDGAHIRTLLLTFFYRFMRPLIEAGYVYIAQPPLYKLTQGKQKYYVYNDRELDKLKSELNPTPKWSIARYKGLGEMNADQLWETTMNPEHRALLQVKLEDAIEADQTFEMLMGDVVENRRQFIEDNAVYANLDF
The target of data set [3] is DNA gyrase subunit B (Escherichia coli) (UniProt P0AES6). As to the kind of experiment: Inhibition of Escherichia coli GyrB at 100 uM.
Data set [4] concerns the target DNA gyrase subunit A/DNA gyrase subunit B (Mycobacterium tuberculosis (strain ATCC 25618 / H37Rv), UniProt P9WG45+P9WG47). As to the kind of experiment: Inhibition of Mycobacterium tuberculosis GyrA/GyrB using relaxed pBR322 substrate incubated for 30 mins by ethidium bromide staining and electrophoresis based DNA supercoiling assay.
Data set [5] has as its system Mycobacterium tuberculosis. The data set can be described thus: Antimycobacterial activity against Mycobacterium tuberculosis H37Rv ATCC 27294 incubated for 7 days by microplate alamar blue assay method. The format is functional. The settings on record: H37Rv ATCC 27294, 168 h. Background: The colour change of resazurin is a common sign of viable cells or microbes.

Data set [6] in a line: Cytotoxicity against mouse RAW264.7 cells assessed as inhibition of cell growth at 50 uM after 48 hrs by MTT assay. Type of data set: cell-based. To be noted: read-out: GI. For orientation: Tetrazolium dyes change colour on reduction, which living cells bring about.
The target of data set [7] is DNA gyrase subunit B (Mycobacterium smegmatis) (UniProt P0C559). As to the kind of experiment: Binding affinity to Mycobacterium smegmatis GyrB assessed as increase in protein-compound complex stability by measuring right side positive shift of melting temperature by SYPRO-orange dye based differential scanning fluorimetry. The settings on record: Mycolicibacterium smegmatis. In general terms: In DSF a fluorescence change marks the thermal transition of the protein.
Sequence of DNA gyrase subunit B (Mycobacterium smegmatis) (P0C559 2-675 limits assumed): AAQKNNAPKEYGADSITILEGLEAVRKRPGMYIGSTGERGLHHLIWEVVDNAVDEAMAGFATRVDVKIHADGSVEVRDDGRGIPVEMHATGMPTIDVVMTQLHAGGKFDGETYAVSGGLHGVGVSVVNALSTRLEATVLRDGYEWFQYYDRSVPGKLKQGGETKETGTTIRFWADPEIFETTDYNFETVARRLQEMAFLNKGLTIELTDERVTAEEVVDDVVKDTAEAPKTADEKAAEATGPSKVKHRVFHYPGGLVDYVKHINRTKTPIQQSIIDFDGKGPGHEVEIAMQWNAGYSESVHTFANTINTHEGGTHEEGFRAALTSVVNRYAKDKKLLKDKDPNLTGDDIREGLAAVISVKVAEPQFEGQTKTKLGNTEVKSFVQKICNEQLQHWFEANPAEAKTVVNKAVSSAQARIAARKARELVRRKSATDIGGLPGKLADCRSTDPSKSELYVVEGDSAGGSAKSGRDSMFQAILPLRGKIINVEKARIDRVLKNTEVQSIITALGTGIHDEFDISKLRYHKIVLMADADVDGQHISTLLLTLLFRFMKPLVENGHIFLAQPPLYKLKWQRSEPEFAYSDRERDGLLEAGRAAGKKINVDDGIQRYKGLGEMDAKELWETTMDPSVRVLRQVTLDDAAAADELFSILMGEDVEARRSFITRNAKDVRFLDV

The species named for data set [8] is Danio rerio. As to the kind of experiment: Cardiotoxic inhibition of ERG channel in Zebrafish assessed as change in heart rate of atria at 1 uM to 30 uM after 4 hrs. Type of data set: organism-based. The settings on record: in vivo.
For data set [9], the species on record is Danio rerio. The data set can be described thus: Cardiotoxic inhibition of ERG channel in Zebrafish assessed as change in atrio ventricular beats ratio at 1 uM to 30 uM after 4 hrs. The format is organism-based, Cardiac ventricle. The settings on record: in vivo.
The species entered for data set [10] is Danio rerio. As to the kind of experiment: Cardiotoxic inhibition of ERG channel in Zebrafish assessed as change in heart rate of ventricles at 1 uM to 30 uM after 4 hrs. The format is organism-based. The settings on record: in vivo.
The species entered for data set [11] is Danio rerio. As to the kind of experiment: Cardiotoxic inhibition of ERG channel in Zebrafish assessed as change in heart rate of atria at 20 uM after 4 hrs. Type of data set: organism-based. The settings on record: in vivo.
Data set [12] is filed under the species Danio rerio. The data set can be described thus: Cardiotoxic inhibition of ERG channel in Zebrafish assessed as change in heart rate of ventricles at 20 uM after 4 hrs. Type of data set: organism-based. To be noted: in vivo.
The species entered for data set [13] is Danio rerio. As to the kind of experiment: Cardiotoxic inhibition of ERG channel in Zebrafish assessed as change in atrio ventricular beats ratio at 20 uM after 4 hrs. Type of data set: organism-based, Cardiac ventricle. To be noted: in vivo.
For data set [14], the species on record is Danio rerio. As to the kind of experiment: Cardiotoxic inhibition of ERG channel in Zebrafish assessed as change in heart rate of atria at 30 uM after 4 hrs. The format is organism-based. The settings on record: in vivo.
Data set [15] is filed under the species Danio rerio. As to the kind of experiment: Cardiotoxic inhibition of ERG channel in Zebrafish assessed as change in heart rate of ventricles at 30 uM after 4 hrs. To be noted: in vivo. Type of data set: organism-based.
The species named for data set [16] is Danio rerio. As to the kind of experiment: Cardiotoxic inhibition of ERG channel in Zebrafish assessed as change in atrio ventricular beats ratio at 30 uM after 4 hrs. Type of data set: organism-based, Cardiac ventricle. The settings on record: in vivo.
The species entered for data set [17] is Danio rerio. As to the kind of experiment: Cardiotoxic inhibition of ERG channel in Zebrafish assessed as change in heart rate of atria at 1 uM to 10 uM after 4 hrs. Type of data set: organism-based. To be noted: in vivo.
The species entered for data set [18] is Danio rerio. The data set can be described thus: Cardiotoxic inhibition of ERG channel in Zebrafish assessed as change in heart rate of ventricles at 1 uM to 10 uM after 4 hrs. The settings on record: in vivo. Type of data set: organism-based.
The species entered for data set [19] is Danio rerio. As to the kind of experiment: Cardiotoxic inhibition of ERG channel in Zebrafish assessed as change in atrio ventricular beats ratio at 1 to 10 uM after 4 hrs. The settings on record: in vivo. The format is organism-based, Cardiac ventricle.

The values below come from ChEMBL document CHEMBL3399993, “Design and synthesis of novel quinoline-aminopiperidine hybrid analogues as Mycobacterium tuberculosis DNA gyraseB inhibitors” (Bioorg Med Chem, 2015).

Converted amounts (≈) assume the structure as drawn. The source made the active and inactive calls. The calls are words filed in the database; no cut-off is given here.

Sequence of DNA gyrase subunit A/DNA gyrase subunit B (P9WG45 whole entry): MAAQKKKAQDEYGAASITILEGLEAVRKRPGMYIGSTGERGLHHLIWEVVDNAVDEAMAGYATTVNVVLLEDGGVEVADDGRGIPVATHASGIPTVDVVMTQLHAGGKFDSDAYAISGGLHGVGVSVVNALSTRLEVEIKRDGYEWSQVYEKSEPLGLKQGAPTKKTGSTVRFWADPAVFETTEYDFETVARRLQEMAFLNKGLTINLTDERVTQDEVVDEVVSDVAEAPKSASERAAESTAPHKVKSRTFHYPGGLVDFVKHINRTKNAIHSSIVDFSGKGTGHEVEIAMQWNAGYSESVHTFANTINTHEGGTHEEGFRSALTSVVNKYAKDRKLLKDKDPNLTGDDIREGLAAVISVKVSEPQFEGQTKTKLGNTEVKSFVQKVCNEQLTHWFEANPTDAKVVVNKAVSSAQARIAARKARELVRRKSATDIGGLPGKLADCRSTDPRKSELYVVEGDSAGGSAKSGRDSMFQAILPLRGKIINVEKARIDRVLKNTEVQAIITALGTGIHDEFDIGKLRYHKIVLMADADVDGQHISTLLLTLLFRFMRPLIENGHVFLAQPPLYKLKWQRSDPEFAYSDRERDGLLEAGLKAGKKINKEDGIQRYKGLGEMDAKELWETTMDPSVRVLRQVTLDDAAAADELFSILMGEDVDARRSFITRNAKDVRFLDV
Sequence of DNA gyrase subunit A/DNA gyrase subunit B (P9WG47 whole entry): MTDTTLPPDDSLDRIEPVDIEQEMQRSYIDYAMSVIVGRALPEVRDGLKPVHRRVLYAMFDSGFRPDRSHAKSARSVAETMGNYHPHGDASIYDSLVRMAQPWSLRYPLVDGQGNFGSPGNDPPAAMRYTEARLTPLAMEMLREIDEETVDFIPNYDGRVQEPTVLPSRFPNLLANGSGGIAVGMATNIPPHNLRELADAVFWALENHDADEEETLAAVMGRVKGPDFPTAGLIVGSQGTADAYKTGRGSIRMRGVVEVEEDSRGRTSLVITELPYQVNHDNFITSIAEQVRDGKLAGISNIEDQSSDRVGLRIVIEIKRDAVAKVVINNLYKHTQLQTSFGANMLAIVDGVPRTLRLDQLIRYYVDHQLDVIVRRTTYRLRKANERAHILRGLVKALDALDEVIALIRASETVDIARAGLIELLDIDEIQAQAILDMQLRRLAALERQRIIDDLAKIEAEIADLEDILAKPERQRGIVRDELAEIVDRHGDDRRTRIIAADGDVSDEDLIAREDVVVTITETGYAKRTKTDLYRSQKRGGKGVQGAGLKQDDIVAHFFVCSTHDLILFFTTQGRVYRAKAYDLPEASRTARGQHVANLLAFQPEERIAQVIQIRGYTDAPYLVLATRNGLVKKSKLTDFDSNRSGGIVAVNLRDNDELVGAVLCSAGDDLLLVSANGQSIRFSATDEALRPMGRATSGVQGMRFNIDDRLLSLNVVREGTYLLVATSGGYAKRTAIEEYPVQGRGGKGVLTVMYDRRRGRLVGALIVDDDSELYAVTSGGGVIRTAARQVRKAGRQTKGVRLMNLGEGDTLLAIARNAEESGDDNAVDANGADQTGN
Sequence of DNA gyrase subunit B (P0C559 whole entry): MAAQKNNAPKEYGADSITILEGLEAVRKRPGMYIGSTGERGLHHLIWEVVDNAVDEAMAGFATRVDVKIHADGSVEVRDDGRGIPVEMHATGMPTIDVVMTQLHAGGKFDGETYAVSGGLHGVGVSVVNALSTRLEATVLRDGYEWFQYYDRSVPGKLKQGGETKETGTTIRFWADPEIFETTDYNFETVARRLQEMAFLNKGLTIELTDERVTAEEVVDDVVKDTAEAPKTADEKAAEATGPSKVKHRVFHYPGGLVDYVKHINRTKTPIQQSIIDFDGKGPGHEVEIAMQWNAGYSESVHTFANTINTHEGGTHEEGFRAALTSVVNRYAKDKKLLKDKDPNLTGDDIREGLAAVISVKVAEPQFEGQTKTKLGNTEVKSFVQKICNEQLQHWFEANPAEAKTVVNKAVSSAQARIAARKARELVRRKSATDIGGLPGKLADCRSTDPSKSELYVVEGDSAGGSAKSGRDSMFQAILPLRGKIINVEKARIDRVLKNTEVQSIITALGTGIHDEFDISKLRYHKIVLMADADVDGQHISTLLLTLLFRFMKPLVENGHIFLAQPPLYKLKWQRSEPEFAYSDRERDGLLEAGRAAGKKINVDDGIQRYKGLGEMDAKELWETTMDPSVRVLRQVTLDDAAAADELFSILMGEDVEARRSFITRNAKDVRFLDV

Broadly, the IC50 is the point on the concentration scale where inhibition reaches its midpoint. Low values mean greater potency, high ones weaker potency. In general, MIC refers to the lowest concentration found to suppress growth. What is called ΔTm is the change in melting temperature against a reference sample. In the case of `COc1ccc2nc(C)cc(N3CCC(NC(=S)Nc4ccc(Cl)cc4)CC3)c2c1`, the values for the IC50 in data set [1] and in data set [4] were 0.95 µM and 0.62 µM, respectively. Moreover, the inhibition result in data set [2] and in data set [3] was “inactive” in each case. This molecule also showed an MIC in data set [5] of 3.47 µM (≈ 1.53 µg/mL). Moreover, in data set [6], the inhibition at 48 h, 50 µM stood at 29.7%. Moreover, in data set [7], the shift in melting temperature (ΔTm) was 3.1 °C. The Activity result in [8], in data set [9] and in data set [10] was “Non-toxic” throughout.
For `CC(C)(C)c1ccc(C(O)CCCN2CCC(C(O)(c3ccccc3)c3ccccc3)CC2)cc1` (stereo not given) [TERFENADINE], the Activity entry in data set [11], in data set [12] and in data set [13] was “Toxic” each time.
In the case of `COc1ccc2nc(C)cc(N3CCC(NC(=S)Nc4ccc(C)cc4)CC3)c2c1`, the half-maximal inhibitory concentration (IC50) in [1] worked out at 11.1 µM; in data set [4], 7.94 µM. This molecule came in with a minimum inhibitory concentration (MIC) in data set [5] of 7.28 µM (≈ 3.06 µg/mL). Moreover, in [6], the inhibition at 48 h, 50 µM stood at 44.9%. The Activity result is listed as “Toxic” in [14]; “Toxic” in data set [15]; “Toxic” in data set [16]; “Non-toxic” in data set [17]; “Non-toxic” in [18]; “Non-toxic” in [19].
In the case of `Cc1cc(N2CCC(NC(=O)Nc3ccc([N+](=O)[O-])cc3)CC2)c2cc(F)ccc2n1`, the concentration for half-maximal inhibition (IC50) worked out at 6.83 µM in [1] and 2.14 µM in data set [4]. The molecule further gave an MIC in data set [5] of 9.52 µM (≈ 4.03 µg/mL). In addition, the inhibition at 48 h, 50 µM in data set [6] amounted to 47.9%.
For `COc1ccc2nc(C)cc(N3CCC(NC(=O)Nc4ccc(C)cc4)CC3)c2c1`, the figures for the IC50 in data set [1] and in data set [4] were 11.5 µM and 8.63 µM, respectively. In [5], this molecule gave a minimal inhibitory concentration (MIC) of 15.4 µM (≈ 6.25 µg/mL). Also, in [6], the inhibition at 48 h, 50 µM turned out to be 28.2%.
As to `COc1ccc2nc(C)cc(N3CCC(NC(=O)Nc4ccc([N+](=O)[O-])cc4)CC3)c2c1`, the values for the concentration for half-maximal inhibition (IC50) in data set [1] and in [4] were 6.99 µM and 5.33 µM, respectively. Further, the MIC in data set [5] is 14.7 µM (≈ 6.4 µg/mL). The inhibition at 48 h, 50 µM in data set [6] is 35%.
For `Cc1ccc(NC(=O)NC2CCN(c3cc(C)nc4ccc(F)cc34)CC2)cc1`, the half-inhibitory concentration (IC50) in [1] was 15 µM; in data set [4] it was 8.83 µM. Also, inhibition of growth in data set [5] (MIC) required 16 µM (≈ 6.27 µg/mL). The inhibition at 48 h, 50 µM in [6] amounted to 39.7%.
For `COc1ccc(NC(=S)NC2CCN(c3cc(C)nc4ccc(OC)cc34)CC2)cc1` the same measures were 10.1 µM, 6.17 µM, 15.8 µM (≈ 6.92 µg/mL) and 31.8%.
With `Cc1cc(N2CCC(NC(=S)Nc3ccc([N+](=O)[O-])cc3)CC2)c2cc(C(F)(F)F)ccc2n1`, the half-maximal inhibitory concentration (IC50) came to 41.8 µM in data set [1] and 7.54 µM in data set [4]. In data set [5], 51.1 µM (≈ 25 µg/mL) was the least that counted as inhibitory (MIC). Further, in [6], the inhibition at 48 h, 50 µM was determined as 19.8%.
Consider `COc1ccc2nc(C)cc(N3CCC(NC(=O)Nc4ccc(Cl)cc4)CC3)c2c1`, for which the figures for the IC50 in [1] and in data set [4] were 16.2 µM and 14.3 µM, respectively. In data set [5], this molecule came in with a minimal inhibitory concentration (MIC) of 17.4 µM (≈ 7.37 µg/mL). Besides, in data set [6], the inhibition at 48 h, 50 µM came out at 42.4%.
Consider `COc1ccc2nc(C)cc(N3CCC(NC(=S)Nc4ccccc4)CC3)c2c1`, for which the IC50 in data set [1] came out at 2.14 µM; in data set [4], 0.91 µM. In data set [5], this molecule yielded an MIC of 3.81 µM (≈ 1.55 µg/mL). Moreover, the inhibition at 48 h, 50 µM in data set [6] was found to be 41.9%.
